Assay results reported in paper PMC9144829, “Histone Deacetylase Inhibitory Activity and Antiproliferative Potential of New [6]-Shogaol Derivatives” (Molecules, 2022).
Where two headings read alike, the source gives them in different places.

Key:
[1] = system: human cervical cancer (HeLa) cells; assay: MTT assay, HeLa cells; format: cell-based; conditions: for IC50: Homo sapiens, read-out: IC50 Values (Mean ± SD; n = 3), HeLa cells
Method: (§1) The MTT reduction assay was performed with non-cancer (Vero), human cervical cancer (HeLa), human colon cancer (HCT116), human breast adenocarcinoma cancer (MCF-7), and cholangiocarcinoma (H-69 […], KKU-100 and KKU-M213B) cell lines according to the previously described method. Briefly, cells were seeded in 96-well plates. The next day, cells were exposed to the selected compounds at various concentrations and incubated for 24, 48 and 72 h. After incubation, the culture medium was exchanged with 110 µL of MTT (0.5 mg/mL in PBS medium) and further incubated for 2 h. The amount of MTT formazan product was determined after dissolving in DMSO by measuring its absorbance with a microplate reader (Bio-Rad Laboratories, Hercules, CA, USA) at a test wavelength of 550 nm and a reference wavelength of 655 nm. The cell viability was expressed as a percentage of the viable cells of control culture conditions, and the IC50 values of each group were calculated.

[2] = system: human breast adenocarcinoma cancer (MCF-7) cells; assay: MTT assay, MCF-7 cells; format: cell-based; conditions: Homo sapiens, MCF7, read-out: IC50 Values (Mean ± SD; n = 3)
Method: as §1

[3] = system: cholangiocarcinoma KKU-M213B cells; assay: MTT assay, KKU-M213B cells; format: cell-based, human; conditions: Homo sapiens, read-out: IC50 Values (Mean ± SD; n = 3)
Method: as §1

[4] = system: human colon cancer (HCT116) cells; assay: MTT assay, HCT116 cells; format: cell-based; conditions: Homo sapiens, HCT-116, read-out: IC50 Values (Mean ± SD; n = 3)
Method: as §1

histone deacetylase = conditions: Figure 1; read-out: IC50 (known histone deacetylase inhibitors); cited from earlier work
H-69 cells = assay: MTT assay, H-69 cells; format: cell-based; conditions: Homo sapiens, NCI-H69, read-out: IC50 Values (Mean ± SD; n = 3)
Method: as §1

Vero cells = assay: MTT assay, non-cancer Vero cells; format: cell-based; conditions: Chlorocebus sabaeus, read-out: IC50 Values (Mean ± SD; n = 3)
Method: as §1

[5] = system: cholangiocarcinoma KKU-100 cells; assay: MTT assay, KKU-100 cells; format: cell-based, human; conditions: Homo sapiens, KKU100, read-out: IC50 Values (Mean ± SD; n = 3)
Method: as §1

[6] = system: HDAC enzymes (HeLa nuclear extract, mixed-HDAC isoforms); assay: Fluor-de-Lys HDAC activity assay kit, HeLa nuclear extract as source of HDAC enzymes; format: biochemical, human; conditions: compounds at 100 µM
Method: The in vitro HDAC inhibitions of the obtained compounds were carried out with the assay kit containing mixed-HDAC isoforms. […] Therefore, the results were not fully related. However, compounds with good binding affinities should have the potential to be specific HDAC inhibitors for each isoform.
The semi-synthetic derivatives were evaluated for their ability to inhibit HDAC enzymes. Inhibition of HDAC activity in vitro was assessed using the Fluor-de-Lys HDAC activity assay kit (Biomol, Enzo Life Sciences International, Inc., Farmingdale, NY, USA). The HeLa nuclear extract provided with the kit was used as a source of HDAC enzymes for the in vitro study. TSA was used as the positive control. The HeLa nuclear extract, substrate, buffer and inhibitors were incubated. Deacetylation of the substrate was performed next by adding a developer to generate a fluorophore. The spectra Max Gemini XPS microplate spectrofluorometer (Molecular Devices, San Jose, CA, USA) was used to measure fluorescence signal with excitation at 360 nm and emission at 460 nm. A decrease in fluorescence signal indicated an inhibition of HDAC activity. Trichostatin A (TSA) was used as a positive control. All experiments were carried out in triplicate.

SMILES	IC50 ([1]; 24 h) [µM]	IC50 ([1]; 48 h) [µM]	IC50 ([1]; 72 h) [µM]	IC50 ([2]; 24 h) [µM]	IC50 ([2]; 48 h) [µM]	IC50 ([2]; 72 h) [µM]	IC50 ([3]; 24 h) [µM]	IC50 ([3]; 48 h) [µM]	IC50 ([3]; 72 h) [µM]	IC50 ([4]; 24 h) [µM]	IC50 ([4]; 48 h) [µM]	IC50 ([4]; 72 h) [µM]	IC50 (histone deacetylase) [µM]	IC50 (H-69 cells; 24 h) [µM]	IC50 (H-69 cells; 48 h) [µM]	IC50 (H-69 cells; 72 h) [µM]	IC50 (Vero cells; 24 h) [µM]	IC50 (Vero cells; 48 h) [µM]	IC50 (Vero cells; 72 h) [µM]	IC50 ([5]; 24 h) [µM]	also measured
CCCCC/C=C/C(=O)CCc1ccc(O)c(OC)c1 [Compound 4, [6]-shogaol]	16.9 ± 0.8	9.26 ± 0.46	8.1 ± 0.29	24.8 ± 0.66	16.54 ± 0.15	13.39 ± 0.07	17.95 ± 0.05	12.9 ± 0.47	9.91 ± 0.17	17.3 ± 0.57	12.4 ± 0.15	12.3 ± 0.13	50	38.4 ± 0.84	32 ± 0.55	24.78 ± 0.24	37.6 ± 0.94	36 ± 0.95	23.3 ± 0.24	27.64 ± 0.26	selectivity towards HeLa cells than non-cancer cells ([1]; HeLa versus non-cancer cells): 3 fold; IC50 ([5]; 48 h): 18.9 ± 0.48 µM; IC50 ([5]; 72 h): 17.04 ± 0.04 µM; %HDAC Inhibition [6]: 86%
CCCCC[C@H](O)CC(=O)CCc1ccc(O)c(OC)c1 [[6]-Gingerol (3), [6]-gingerol]	–	–	–	–	–	–	–	–	–	–	–	–	61	–	–	–	–	–	–	–	–
COc1cc(CNC(=O)CCCCC(O)CC(C)C)ccc1O (stereo not drawn) [Hydroxycapsaicin (2), hydroxycapsaicin]	–	–	–	–	–	–	–	–	–	–	–	–	72	–	–	–	–	–	–	–	–
CCCCC/C=C/C(CCc1ccc(O)c(OC)c1)=N\Nc1nc2ccccc2s1 [Compound 4d, 4-((3Z,4E)-3-(2-(Benzo[d]thiazol-2-yl)hydrazono)dec-4-en-1-yl)-2-methoxyphenol]	51.6 ± 1.92	37.2 ± 1.33	33.7 ± 0.76	104 ± 3.17	57.8 ± 2.37	25.5 ± 1.15	39.84 ± 0.29	20.6 ± 0.18	18.2 ± 0.75	40.1 ± 1.47	28.3 ± 0.79	26.63 ± 0.15	–	51.4 ± 1.51	41.4 ± 0.61	29.4 ± 0.89	170 ± 6.98	70 ± 1.27	60.1 ± 1.69	41.6 ± 1.24	IC50 ([5]; 48 h): 31.5 ± 0.8 µM; IC50 ([5]; 72 h): 25.75 ± 0.2 µM; %HDAC Inhibition [6]: 80%
